These results are taken from patent US20090269794A1, “SCREENING METHOD FOR COMPOUND INHIBITING DEVELOPMENT OR PROGRESSION OF FAMILIAL AMYOTROPHIC LATERAL SCLEROSIS AND DIAGNOSTIC METHOD FOR FAMILIAL AMYOTROPHIC LATERAL SCLEROSIS” (HISAMITSU PHARMACEUTICAL CO., INC., priority 2005, published 2009).

For one experiment, the system named is NEDL1 mRNA. In words: NEDL1 mRNA expression by semi-quantitative RT-PCR in SK-N-BE (2) C cells. The conditions noted are these: 250 μM DFO for 24 hours, FIG. 2. It counts as cell-based, human. On the procedure: Human neuroblastoma SK-N-BE (2) C cells were cultured in Dulbecco's […] (DMEM) containing 10% heat treated fetal bovine serum (FBS). Hypoxia culturing was carried out in a 2% oxygen concentration, with the cells in a Napco automatic O2/CO2 cell culture apparatus (Waken Co., Ltd.). DFO (Sigma) treatment was carried out by exposing the cells to 250 μM DFO for 24 hours.
(Reverse Transcription Polymerase Chain Reaction (RT-PCR)) TRIZOL reagent (Invitrogen Corp.) was used according to the manufacturer's manual to prepare total RNA from untreated, hypoxia-treated, DFO-treated cells and the transfected cells. RT-PCR was conducted in the following manner. The prepared total RNA (1 μg/2.5 μL) was incubated at 75° C. for 5 minutes and then allowed to stand on ice for 5 minutes. The prepared RNA was added to a mixture of 0.5 μL RNase inhibitor (40 units/μL, Toyobo, Ltd.), 0.5 μL M-MLV reverse transcriptase (200 units/μL, Invitrogen Corp.), 1 μL 50×dNTPs (2 mM each), 0.5 μL oligo(dT) primer (0.5 mg/mL, Invitrogen Corp.), 2 μL 5×first-strand buffer (Invitrogen Corp.) and 1 μL 0.1 M dithiothreitol, and the mixture was incubated for 10 minutes at room temperature, 45 minutes at 37° C. and 3 minutes at 95° C. to prepare cDNA. The prepared cDNA was used as template with the primers under the following PCR conditions to amplify the NEDL1 and β-actin gene cDNA fragments. […]

For another experiment, the system named is HIF-1α. As to conditions: cells exposed to DFO, normal oxygen conditions, Non-patent document 12; cited from earlier work.

SMILES strings stand for the structures.

With `CC(=O)N(O)CCCCCNC(=O)CCC(=O)N(O)CCCCCNC(=O)CCC(=O)N(O)CCCCCN` [DFO, desferrioxamine], the “NEDL1 mRNA expression” value with NEDL1 mRNA is reported as “increased”. Moreover, the “HIF-1α detection as protein” value in the experiment on HIF-1α is listed as “detected”.
